Data as given in patent publication US20130143886A1, “METHODS FOR PRESERVING AND/OR INCREASING RENAL FUNCTION USING XANTHINE OXIDOREDUCTASE INHIBITORS” (priority 2006, published 2013).
Marks after values point to notes of the source that are not given here.

Assays:
remnant kidney (RK) rats [1] = assay: Proteinuria in remnant kidney rats; type: in vivo, Male Wistar rats
Description: Male Wistar rats (295-340 g) were used to produce rats with remnant kidney (RK) as follows. […] Rats were then assigned to one of four treatment groups: Group 1, RK control rats (n=7); Group 2, RK+febuxostat (Fx) rats (n=8); Group 3, RK+oxonic acid (OA) rats (n=6); and Group 4, RK+OA+Fx (n=10). Oxonic acid (OA) (Sigma-Aldrich, St Louis Mo., USA), administered at 750 mg/kg body weight daily by oral gavage, was given starting the day after the ⅚ nephrectomy. […] Body weight (beginning just before surgery) and food and water intakes were measured daily. Systolic blood pressure, measured in conscious rats by a tail cuff sphygmomanometer, and plasma uric acid (UA) levels were measured at just before surgery (namely, at baseline) and at the end of the four weeks. Proteinuria was measured at baseline and at the end of two and four weeks. […] Food and water intake were determined daily. Systolic blood pressure (SBP) was measured by a tail-cuff sphygmomanometer using an automated system (XBP-100; Kent Scientific Co, Torrington, Conn., USA) in conscious animals. […] Plasma uric acid was quantified using a commercial kit (Diagnostic Chemicals Ltd, Charlottetown, PEI, Canada). […]

remnant kidney (RK) rats [2] = assay: Body weight, food and water intake in remnant kidney rats; type: in vivo, Male Wistar rats; conditions: for BW / BW Gain (from baseline): End of Week 4
Description: Male Wistar rats (295-340 g) were used to produce rats with remnant kidney (RK) as follows. […] Rats were then assigned to one of four treatment groups: Group 1, RK control rats (n=7); Group 2, RK+febuxostat (Fx) rats (n=8); Group 3, RK+oxonic acid (OA) rats (n=6); and Group 4, RK+OA+Fx (n=10). Oxonic acid (OA) (Sigma-Aldrich, St Louis Mo., USA), administered at 750 mg/kg body weight daily by oral gavage, was given starting the day after the ⅚ nephrectomy. Beginning immediately following the surgery, febuxostat was administered in drinking water at 30 mg/L (3-4 mg/kg/day), whereas the respective controls received only drinking water (with 3.5 mg/L of NaCl added to keep an equivalent salt concentration to the Fx-containing water). All groups were treated for four weeks. Body weight (beginning just before surgery) and food and water intakes were measured daily. Systolic blood pressure, measured in conscious rats by a tail cuff sphygmomanometer, and plasma uric acid (UA) levels were measured at just before surgery (namely, at baseline) and at the end of the four weeks. Proteinuria was measured at baseline and at the end of two and four weeks. A renal micropuncture procedure along with systemic blood pressure monitoring under pentobarbital anesthesia was performed at the end of four weeks followed by morphologic evaluation of the renal preglomerular microvasculature. Food and water intake were determined daily. Systolic blood pressure (SBP) was measured by a tail-cuff sphygmomanometer using an automated system (XBP-100; Kent Scientific Co, Torrington, Conn., USA) in conscious animals. All animals were preconditioned for blood pressure measurements one week before each experiment. Plasma uric acid was quantified using a commercial kit (Diagnostic Chemicals Ltd, Charlottetown, PEI, Canada). Proteinuria was determined by turbidimetry by the method of trichloroacetic acid as described in Henry R J et al., “Turbidimetric determination of proteins with sulfosalicylic and tricholoroacetic acids”, Proc Soc Exp Biol Med 92:748-751 (1956), the contents of which are herein incorporated by reference.

[3] = system: hyperuricemic gout patients; assay: FOCUS long-term open-label study: safety
[4] = system: human subjects with a history of nephrolithiasis; assay: Adverse events and discontinuations in the double-blind and open-label febuxostat study; type: in vivo
Description: (1) febuxostat 40 mg per day, (2) febuxostat 80 mg per day, (3) febuxostat 120 mg per day, or (4) placebo. Subjects completing the double-blind study entered an open-label, long-term study and began treatment with 80 mg febuxostat per day. Febuxostat doses could be titrated over the initial 6 months to 40 mg or 120 mg febuxostat per day based on the subjects' serum urate levels and the occurrence of adverse events.

remnant kidney (RK) rats [5] = assay: Plasma uric acid in remnant kidney rats; type: in vivo, Male Wistar rats
Description: Male Wistar rats (295-340 g) were used to produce rats with remnant kidney (RK) as follows. […] Rats were then assigned to one of four treatment groups: Group 1, RK control rats (n=7); Group 2, RK+febuxostat (Fx) rats (n=8); Group 3, RK+oxonic acid (OA) rats (n=6); and Group 4, RK+OA+Fx (n=10). Oxonic acid (OA) (Sigma-Aldrich, St Louis Mo., USA), administered at 750 mg/kg body weight daily by oral gavage, was given starting the day after the ⅚ nephrectomy. Beginning immediately following the surgery, febuxostat was administered in drinking water at 30 mg/L (3-4 mg/kg/day), whereas the respective controls received only drinking water (with 3.5 mg/L of NaCl added to keep an equivalent salt concentration to the Fx-containing water). All groups were treated for four weeks. Body weight (beginning just before surgery) and food and water intakes were measured daily. Systolic blood pressure, measured in conscious rats by a tail cuff sphygmomanometer, and plasma uric acid (UA) levels were measured at just before surgery (namely, at baseline) and at the end of the four weeks. Proteinuria was measured at baseline and at the end of two and four weeks. A renal micropuncture procedure along with systemic blood pressure monitoring under pentobarbital anesthesia was performed at the end of four weeks followed by morphologic evaluation of the renal preglomerular microvasculature. Food and water intake were determined daily. Systolic blood pressure (SBP) was measured by a tail-cuff sphygmomanometer using an automated system (XBP-100; Kent Scientific Co, Torrington, Conn., USA) in conscious animals. […] Plasma uric acid was quantified using a commercial kit (Diagnostic Chemicals Ltd, Charlottetown, PEI, Canada). Proteinuria was determined by turbidimetry by the method of trichloroacetic acid as described in Henry R J et al., “Turbidimetric determination of proteins with sulfosalicylic and tricholoroacetic acids”, Proc Soc Exp Biol Med 92:748-751 (1956), the contents of which are herein incorporated by reference.

[6] = system: Mice of the species/strain B6C3F1; assay: Histopathological examination of the kidney after 13 weeks of oral gavage dosing; type: in vivo; conditions: for Vacuolar Degeneration of Renal Proximal Tubules (number of animals): 12 animals examined, 13 weeks
Description: Mice of the species/strain B6C3F1 of an initial age of 6 weeks were dosed via oral gavage with febuxostat suspended in 0.5% methyl cellulose. The daily dose administered was either 0 mg (i.e., the control group), 3 mg, 12 mg, 24 mg, or 48 mg. Histopathological examination of the kidney was carried out after 13-weeks of dosing for vacuolar degeneration of renal proximal tubules (a known naturally occurring change in rodents).

[7] = RK + OA + Fx group (OA-induced hyperuricemia)
[8] = RK + OA + Fx group (OA-induced hyperuricemia), Week 1
[9] = RK + OA + Fx group (OA-induced hyperuricemia), Week 2
[10] = RK + OA + Fx group (OA-induced hyperuricemia), Week 3
[11] = RK + OA + Fx group (OA-induced hyperuricemia), Week 4
[12] = RK rats (RK + Fx or RK + OA group)
[13] = RK rats (RK + Fx or RK + OA group), Week 1
[14] = RK rats (RK + Fx or RK + OA group), Week 2
[15] = RK rats (RK + Fx or RK + OA group), Week 3
[16] = RK rats (RK + Fx or RK + OA group), Week 4
[17] = adverse events, N = 116, PY = 385.6
[18] = serious adverse events, N = 116, PY = 385.6
[19] = number of subjects, N = 18, open-label study

Cc1nc(-c2ccc(OCC(C)C)c(C#N)c2)sc1C(=O)O [febuxostat, 2-[3-cyano-4-(2-methylpropoxy)phenyl]-4-methylthiazole-5-carboxylic acid]
Rise of urinary protein excretion (in words) (remnant kidney (RK) rats [1]; RK rats with and without hyperuricemia): prevented the rise of urinary protein excretion
Urinary protein excretion, lower than the values in the respective control groups (remnant kidney (RK) rats [1]; RK+Fx and RK+OA+Fx rats, end of Week 4): 75-80%
BW (remnant kidney (RK) rats [2]; [7]): 316.7 ± 12.3 g
BW Gain (from baseline) (remnant kidney (RK) rats [2]; [7]): -3.0 ± 11.5 g
Daily Food Intake (remnant kidney (RK) rats [2]; [8]): 8.7 ± 1.7 g
Daily Water Intake (remnant kidney (RK) rats [2]; [8]): 30.2 ± 2.8 mL
Daily Food Intake (remnant kidney (RK) rats [2]; [9]): 16.0 ± 0.7 g
Daily Water Intake (remnant kidney (RK) rats [2]; [9]): 40.6 ± 2.6 mL
Daily Food Intake (remnant kidney (RK) rats [2]; [10]): 18.4 ± 0.5 g
Daily Water Intake (remnant kidney (RK) rats [2]; [10]): 38.6 ± 1.0 mL
Daily Food Intake (remnant kidney (RK) rats [2]; [11]): 18.6 ± 0.5 g
Daily Water Intake (remnant kidney (RK) rats [2]; [11]): 40.5 ± 1.6 mL
BW (remnant kidney (RK) rats [2]; [12]): 340.6 ± 10.8 g
BW Gain (from baseline) (remnant kidney (RK) rats [2]; [12]): 18.4 ± 8.2 g
Daily Food Intake (remnant kidney (RK) rats [2]; [13]): 8.6 ± 1.5 g
Daily Water Intake (remnant kidney (RK) rats [2]; [13]): 31.5 ± 1.4 mL
Daily Food Intake (remnant kidney (RK) rats [2]; [14]): 15.4 ± 0.5 g
Daily Water Intake (remnant kidney (RK) rats [2]; [14]): 32.6 ± 1.2 mL
Daily Food Intake (remnant kidney (RK) rats [2]; [15]): 20.2 ± 0.5 g
Daily Water Intake (remnant kidney (RK) rats [2]; [15]): 37.2 ± 2.5 mL
Daily Food Intake (remnant kidney (RK) rats [2]; [16]): 22.4 ± 1.3 g
Daily Water Intake (remnant kidney (RK) rats [2]; [16]): 39.4 ± 1.6 mL
Water intake in RK rats during febuxostat treatment (in words) (remnant kidney (RK) rats [2]; RK rats, normal daily water intake 35-40 mL): reduced to near normal levels
Body weight or body weight gain between the four treatment groups (in words) (remnant kidney (RK) rats [2]; end of the study): no significant differences in body weight or body weight gain
Subjects reporting serious adverse events (SAEs) ([3]; 21/116 subjects): 18%
Athralgia, rate [3, 17]: 13.0 per 100 PY
Diarrhea, rate [3, 17]: 7.8 per 100 PY
Headaches, rate [3, 17]: 20.5 per 100 PY
Influenza viral infections, rate [3, 17]: 7.3 per 100 PY
Limb injuries, rate [3, 17]: 5.4 per 100 PY
Liver function analyses, rate [3, 17]: 6.3 per 100 PY
Lower respiratory tract infections, rate [3, 17]: 8.8 per 100 PY
Musculoskeletal pain, rate [3, 17]: 23.6 per 100 PY
Paresthesias and dysesthesias, rate [3, 17]: 6.2 per 100 PY
Upper respiratory tract infections, rate [3, 17]: 37.8 per 100 PY
Deaths during the study ([3]; in vivo): No subjects died
Cardiac disorders, rate [3, 18]: 1.6 per 100 PY
Gastrointestinal disorders, rate [3, 18]: 0.8 per 100 PY
General disorders and administration site conditions, rate [3, 18]: 0.3 per 100 PY
Hepatobiliary disorders, rate [3, 18]: 0.5 per 100 PY
Infections and infestations, rate [3, 18]: 1.3 per 100 PY
Injury, poisoning and procedural complications, rate [3, 18]: 1.0 per 100 PY
Musculoskeletal and connective tissue disorders, rate [3, 18]: 1.6 per 100 PY
Neoplasms - bening, malignant and unspecified, rate [3, 18]: 1.0 per 100 PY
Nervous system disorders, rate [3, 18]: 0.5 per 100 PY
Psychiatric disorders, rate [3, 18]: 0.3 per 100 PY
Renal and urinary disorders, rate [3, 18]: 0.3 per 100 PY
Subjects reporting at least one AE during the study ([3]; subjects of 116 (Ninety-one percent)): 106/116
Reported rates of adverse events across renal function (in words) ([3]; throughout the range of renal function encountered): no quantitative difference
Diarrhea (excluding infectious) [4, 19]: 7
Edema NEC [4, 19]: 3
Gastrointestinal and Abdominal Pains (excluding oral and throat) [4, 19]: 3
Joint Related Signs and Symptoms [4, 19]: 6
Lower Respiratory Tract and Lung Infections [4, 19]: 5
Musculoskeletal and Connective Tissue Signs and Symptoms NEC [4, 19]: 5
Non-Site Specific Injuries [4, 19]: 4
Rashes, Eruptions and Exanthems NEC [4, 19]: 3
Total Subjects with ≧1 AE [4, 19]: 17
Upper Respiratory Infections [4, 19]: 12
Urinary Tract Infections [4, 19]: 3
Serum creatinine at Withdrawal (adverse event Increased Creatinine) ([4]; one subject, open-label, Baseline: 1.6 mg/dL): 2.1 mg/dL
Serum creatinine at Follow-up (adverse event Increased Creatinine) ([4]; one subject, Follow-up Day 163, two weeks off study medication): 1.9 mg/dL
Plasma uric acid as % of the value measured in the RK control rats (remnant kidney (RK) rats [5]; RK rats receiving febuxostat, end of four weeks, difference not statistically significant): approximately 63%
Plasma uric acid in OA-treated rats (in words) (remnant kidney (RK) rats [5]; febuxostat added to OA-treated RK rats): prevented the'rise of uric acid levels
Vacuolar Degeneration of Renal Proximal Tubules (number of animals) ([6]; Daily Dose 3, Female): 1
Vacuolar Degeneration of Renal Proximal Tubules (number of animals) ([6]; Daily Dose 3, Male): 7*
Vacuolar Degeneration of Renal Proximal Tubules (number of animals) ([6]; Daily Dose 12, Female): 1
Vacuolar Degeneration of Renal Proximal Tubules (number of animals) ([6]; Daily Dose 12, Male): 5**
Vacuolar Degeneration of Renal Proximal Tubules (number of animals) ([6]; Daily Dose 24, Female): 0
Vacuolar Degeneration of Renal Proximal Tubules (number of animals) ([6]; Daily Dose 24, Male): 2**
Vacuolar Degeneration of Renal Proximal Tubules (number of animals) ([6]; Daily Dose 48, Female): 2
Vacuolar Degeneration of Renal Proximal Tubules (number of animals) ([6]; Daily Dose 48, Male): 1**
Vacuolar degeneration of the renal proximal tubules (in words) ([6]; male animals): reduced the amount of vacuolar degeneration of the renal proximal tubules in a statistically significant fashion
